Test results reported in patent US20170368031A1, “SOLID DISPERSION FORMULATIONS OF ANTIVIRAL COMPOUNDS” (Merck Sharp & Dohme Corp., priority 2014, published 2017).

Tests used:
[1] = Human clinical biocomparison study: oral absorption of Formulation 1 with and without pH-raising medication; conditions: in vivo, 100 mg, healthy subjects
Description: FIG. 1 outlines the process used to make Formulation 1.
The oral absorption obtained from Formulation 1 with and without pH-modifying medications was evaluated as part of human clinical study. Formulation 1 was dosed by itself (Treatment 1) and in the presence of a medication that raises gastric pH (Treatment 2).

[2] = Human clinical biocomparison study: oral absorption from grazoprevir and Formulation 3 with and without pH-raising medication; conditions: in vivo, 100 mg grazoprevir/50 mg Compound I, healthy subjects
Description: The Formulation 2 spray dried intermediate was blended and roller compacted along with microcrystalline cellulose, lactose, croscarmellose sodium, sodium chloride, colloidal silicon dioxide, and magnesium stearate. Only half of the magnesium stearate was added prior to roller compaction. The second half of the magnesium stearate and the remaining croscarmellose sodium was added after roller compaction and the resulting powder mix was blended further.
The oral absorption obtained from grazoprevir and Formulation 3 with (Treatment 2) and without (Treatment 1) co-administration of a pH-raising medication was evaluated as part of human clinical study.

[3] = Treatment 1: Formulation 1 dosed by itself
[4] = Treatment 1: grazoprevir and Formulation 3 without pH-raising medication

Q: Which AUC(0-inf) [1, 3] does the source give for COC(=O)N[C@H](C(=O)N1CCC[C@H]1c1nc(-c2ccc3c(c2)O[C@@H](c2ccccc2)n2c-3cc3cc(-c4c[nH]c([C@@H]5CCCN5C(=O)[C@@H](NC(=O)OC)C(C)C)n4)ccc32)c[nH]1)C(C)C [Compound I, dimethyl N,N′-([(6S)-6-phenylindolo[1,2-c][1,3]benzoxazine-3,10-diyl]bis {1H-imidazole-5,2-diyl-(2S)-pyrrolidine-2,1-diyl[(2S)-3-methyl-l-oxobutane-1,2-diyl]})dicarbamate] here?
A: Its AUC(0-inf) is 3.77 µM·h.

Q: And the Cmax [1, 3]?
A: The Cmax was 216 nM.

Q: And the AUC(0-inf) ([1]; Treatment 2: Formulation 1 with pH-raising medication)?
A: The AUC(0-inf) was 1.57 µM·h.

Q: What about the AUC(0-inf) [2, 4] of the same compound?
A: Its AUC(0-inf) is 1.97 µM·h.

Q: And the Cmax [2, 4]?
A: Its Cmax is 102 nM.

Q: And the AUC(0-inf) ([2]; Treatment 2: grazoprevir and Formulation 3 with pH-raising medication)?
A: Its AUC(0-inf) is 1.79 µM·h.
